Patent publication US20250312323A1 (Cavion, Inc., priority 2018, published 2025)
Entries after “also recorded” stand apart in the source; their conditions may differ.

Key:
[1] = system: patients with essential tremor; test: T-CALM: QUEST questionnaire, items on anti-tremor medication; format: in vivo, human
[2] = system: patients with essential tremor; test: T-CALM: TETRAS performance subscale, independent video raters; format: in vivo, human; settings: Day 28
Text: Both sets of scores were statistically analyzed.

[3] = Pharmacokinetics of CX-8998 immediate release capsules in healthy volunteers (Studies PN001, PN002); format: in vivo, human; settings: 2-18 mg dose range
[4] = Pharmacokinetics of MR2 CX-8998 in fed versus fasted subjects; format: in vivo, human; settings: MR2 CX-8998, single dose 1×8 mg
Text: Subjects will be screened for study eligibility within 28 days before administration of the first dose of study drug. Subjects who meet the study eligibility criteria will be admitted to the clinical research unit in the afternoon of the day before administration of the first dose of study drug (Period 1/Day −1).

[5] = Solubility of CX-8998; format: physicochemical; settings: at higher pH values
Text: Sustained release (SR) beads were developed with multiple types of sustained release and enteric coatings. Some SR matrix beads were developed using typical polymers (e.g., hydroxypropyl methylcellulose or carbopol) to achieve sustained release. Some SR matrix beads were developed using pH independent sustained release osmotic pumps to achieve zero order release from the tablet. […] Some SR matrix beads were developed using Eudragit RS/RL30D coating of IR beads to achieve an approach that depends on slow erosion of coating thereby sustaining the release of the drug from an IR matrix.

[6] = system: patients with essential tremor; test: T-CALM: treatment-emergent adverse events, discontinuations, dosage reductions; format: in vivo, human
Experimental: T-CALM employed the following dose titration scheme: Week 1 at 4 mg BID (8 mg/day), Week 2 at 8 mg BID (16 mg/day) and Weeks 3 & 4 at 10 mg BID (20 mg/day). […] Adverse Events were coded using MedDRA V20.0. Only treatment emergent adverse events with an onset date and time after the initiation of study drug until 30 days after discontinuation of drug were reported. For subjects who experience the same coded event more than once, a single event was presented. Adverse events were attributed to a study week based on the onset date, i.e. events that started on or after Visit 1 and prior to Visit 2 were classified as Study Week 1.
Adverse events are characterized by maximum severity, drug-related adverse events, serious adverse events and adverse events leading to discontinuation of study.
Safety procedures involved collection of all TEAEs (treatment-emergent adverse events) coded into the Medical Dictionary for Regulatory Activities (MedDRA) version 20. Adverse events were classified by maximum severity, drug-related adverse events, serious adverse events, and adverse events leading to patient discontinuation.

[7] = N = 48, inadequate drug supply at Visit 4

CC(C)c1ccc(CC(=O)N[C@H](C)c2ccc(OCC(F)(F)F)cn2)cc1 [CX-8998]
QUEST: Side effect from tremor medication in past month? answer No, patients, number (%) ([1]; Day 15): 25 (64%) | QUEST: Side effect from tremor medication in past month? answer Yes, patients, number (%) ([1]; Day 15): 14 (36%) | QUEST: Side effect from tremor medication in past month? answer No, patients, number (%) ([1]; Day 28): 30 (77%) | QUEST: Side effect from tremor medication in past month? answer Yes, patients, number (%) ([1]; Day 28): 7 (18%) | LS mean (±SE) change from baseline in TETRAS-PS scored by independent video raters (primary endpoint) [2]: −1.8±0.81 | dose proportionality of plasma profiles [3]: dose proportional | effect of fed state on overall exposure as measured by AUC [4]: does not appear to significantly impact overall exposure | effect of fed vs fasted state on early absorption [4]: impacts early absorption | effect of fed vs fasted state on late absorption [4]: does not appear to significantly impact late absorption | solubility [5]: poor solubility | Discontinuation due to Nervous System Disorders, subjects, percent ([6]; N = 48): (8%) | Discontinuation due to Psychiatric Disorders, subjects, number ([6]; N = 48): 4 | Discontinuation due to Psychiatric Disorders, subjects, percent ([6]; N = 48): (8%) | Dosage reduced during study, subjects, percent ([6]; N = 48): (8%) | Dosage reduction due to adverse event, subjects, number ([6]; N = 48): 3 | Dosage reduction due to adverse event, subjects, percent ([6]; N = 48): (6%) | Subjects with at least 1 event leading to discontinuation, number ([6]; N = 48): 8 | Subjects with at least 1 event leading to discontinuation, percent ([6]; N = 48): (17%) | Dosage reduction due to other reasons, subjects, number [6, 7]: 1 | Dosage reduction due to other reasons, subjects, percent [6, 7]: (2%)^3 | TEAE Ear and Labyrinth Disorders (system organ class), subjects, number (%) ([6]; Safety Analysis Set, n = 48): 2 (4%) | TEAE Gastrointestinal Disorders (system organ class), subjects, number (%) ([6]; Safety Analysis Set, n = 48): 9 (19%) | TEAE Infections and Infestations (system organ class), subjects, number (%) ([6]; Safety Analysis Set, n = 48): 4 (8%) | TEAE Nervous System Disorders (system organ class), subjects, number (%) ([6]; Safety Analysis Set, n = 48): 20 (42%) | TEAE Psychiatric Disorders (system organ class), subjects, number (%) ([6]; Safety Analysis Set, n = 48): 12 (52%) | Dosage reduction due to TEAEs, patients ([6]; T-CALM): 6% | Serious adverse events (alcohol withdrawal syndrome, major depression, suicidal ideation), deemed unrelated to study drug ([6]; T-CALM): one patient | patients with at least 1 TEAE ([6]; T-CALM): 58% | Discontinuation due to adverse events (TEAEs), patients n (%) ([6]; T-CALM, N=48): 8 (17%) | TEAE Abnormal dreams, n (%) ([6]; T-CALM, n = 48): 2 (4%) | TEAE Disturbance in attention, n (%) ([6]; T-CALM, n = 48): 2 (4%) | TEAE Dizziness, n (%) ([6]; T-CALM, n = 48): 10 (21%) | TEAE Dry mouth, n (%) ([6]; T-CALM, n = 48): 2 (4%) | TEAE Dysgeusia, n (%) ([6]; T-CALM, n = 48): 2 (4%) | TEAE Ear and Labyrinth Disorders, n (%) ([6]; T-CALM, n = 48): 2 (4%) | TEAE Euphoric mood, n (%) ([6]; T-CALM, n = 48): 3 (6%) | TEAE Gastrointestinal Disorders, n (%) ([6]; T-CALM, n = 48): 9 (19%) | TEAE Hallucination, n (%) ([6]; T-CALM, n = 48): 2 (4%) | TEAE Headache, n (%) ([6]; T-CALM, n = 48): 4 (8%) | TEAE Hypesthesia, n (%) ([6]; T-CALM, n = 48): 0 | TEAE Infections and Infestations, n (%) ([6]; T-CALM, n = 48): 4 (8%) | TEAE Insomnia, n (%) ([6]; T-CALM, n = 48): 3 (6%) | TEAE Nausea, n (%) ([6]; T-CALM, n = 48): 1 (2%) | TEAE Nervous System Disorders, n (%) ([6]; T-CALM, n = 48): 20 (42%) | TEAE Paraesthesia, n (%) ([6]; T-CALM, n = 48): 2 (4%) | TEAE Somnolence, n (%) ([6]; T-CALM, n = 48): 1 (2%) | TEAE Tinnitus, n (%) ([6]; T-CALM, n = 48): 2 (4%) | TEAE Urinary Tract Infection, n (%) ([6]; T-CALM, n = 48): 2 (4%) | TEAE Vomiting, n (%) ([6]; T-CALM, n = 48): 0 | safety and tolerability in ET patients ([6]; T-CALM, up to 10 mg BID): safe and well tolerated | Adverse Event (MedDRA Preferred Term) leading to dosage reduction ([6]; individual subjects 26-001 (10 to 8 mg BID), 31-023 (8 to 4 mg BID), 33-004 (4 to 2 mg BID), one line each, considered related to study drug): Anxiety; also recorded: Electrocardiogram; also recorded: Headache | AE Any Event, percent of subjects ([6]; onset in study week 1): (40%) | AE Central Nervous System Disorders, number of subjects ([6]; onset in study week 1): 16 | AE Central Nervous System Disorders, percent of subjects ([6]; onset in study week 1): (33%) | AE Ear and Labyrinth Disorders, number of subjects ([6]; onset in study week 1): 2 | AE Ear and Labyrinth Disorders, percent of subjects ([6]; onset in study week 1): (4%) | AE Eye Disorders, number of subjects ([6]; onset in study week 1): 1 | AE Eye Disorders, percent of subjects ([6]; onset in study week 1): (2%) | AE Gastrointestinal Disorders, number of subjects ([6]; onset in study week 1): 7 | AE Gastrointestinal Disorders, percent of subjects ([6]; onset in study week 1): (15%) | AE Infections and Infestations, number of subjects ([6]; onset in study week 1): 0 | AE Injury, Poisoning and Procedural Complications, percent of subjects ([6]; onset in study week 1): (2%) | AE Investigations, number of subjects ([6]; onset in study week 1): 1 | AE Investigations, percent of subjects ([6]; onset in study week 1): (2%) | AE Metabolism and Nutrition Disorders, number of subjects ([6]; onset in study week 1): 1 | AE Metabolism and Nutrition Disorders, percent of subjects ([6]; onset in study week 1): (2%) | AE Musculoskeletal and Connective Tissue Disorders, number of subjects ([6]; onset in study week 1): 1 | AE Musculoskeletal and Connective Tissue Disorders, percent of subjects ([6]; onset in study week 1): (2%) | AE Neoplasms, number of subjects ([6]; onset in study week 1): 1 | AE Neoplasms, percent of subjects ([6]; onset in study week 1): (2%) | AE Psychiatric Disorders, number of subjects ([6]; onset in study week 1): 8 | AE Psychiatric Disorders, percent of subjects ([6]; onset in study week 1): (17%) | AE Respiratory, Thoracic and Mediastinal Disorders, percent of subjects ([6]; onset in study week 1): (2%) | AE Skin and Subcutaneous Tissue Disorders, number of subjects ([6]; onset in study week 1): 1
